Assay results as given in patent US10183030B2, “17α,21-diesters of cortexolone for use in the treatment of tumors” (COSMO TECHNOLOGIES LTD., priority 2014, dated 2019).

What was measured:
Type in all cases: cell-based
MDA-MB-231 TNBC cells = assay: In vitro proliferation / cytotoxic assay, MDA-MB-231
Method: After 72 hours incubation cell were harvested, lysed and viability determined using the cell titer glow assay for viability.

LNCaP cells = assay: LNCaP cell viability in the PSA secretion experiment; conditions: Homo sapiens, 48 hours, same cells as PSA assay
Method: (§1) Prostate-specific antigen, or PSA, is a protein produced by cells of the prostate gland. The PSA test measures the level of PSA in a person's blood. The blood level of PSA is often elevated in men with prostate cancer and it used as surrogate marker to test prostate cancer progression in human population. […] After 48 hours incubation with test compounds, supernatants were harvested and tested with an Elisa assay for PSA and same cells were lysed for cell viability assessment.

[1] = tested on: PSA secretion from LNCaP prostate cancer cells; assay: PSA secretion from LNCaP cells (Elisa); conditions: Homo sapiens, 48 hours, read-out: IC50, inhibition of PSA secretion
Method: as §1, with “population. After the observation that CB-03-10 was able to inhibit in vivo the growth of prostate cancer, the capability of the compound to inhibit in vitro PSA secretion from cancer cells was determined.” for “population.”

SMILES | IC50 (MDA-MB-231 TNBC cells; Homo sapiens, MDA-MB-231 (ER−PR−GR++), 72 hours, Table VI, unit inferred, read-out: IC50 on breast cancer cells) | maximum inhibition of viability (MDA-MB-231 TNBC cells; MDA-MB-231, at 100 μM) | IC50 (LNCaP cells) | IC50 [1]
CC#C[C@]1(O)CC[C@H]2[C@@H]3CCC4=CC(=O)CCC4=C3[C@@H](c3ccc(N(C)C)cc3)C[C@@]21C [RU486, Mifepristone] | 435 µM | 25% |  | 
C[C@]12CCC(=O)C=C1CC[C@@H]1[C@@H]2CC[C@@]2(C)[C@H]1CC[C@]2(O)C(=O)CO [Cortexolone] |  |  | 153 µM | 612 µM
CNC(=O)c1ccc(N2C(=S)N(c3ccc(C#N)c(C(F)(F)F)c3)C(=O)C2(C)C)cc1F [Enzalutamide] |  |  |  | < 3 µM
